Test results from patent US20020155172A1, “Methods and compounds for decreasing cell toxicity or death” (priority 2000, published 2002).

Experiments:
R62 transgenic mice = assay: Rotorod, muscle strength, first study; type: in vivo; conditions: R62Tg mice; 10 rpm, maximum 60 seconds; versus R62Tg without Congo red
Experimental: FIG. 9 is a graph showing the effect of intraperitoneal injection of Congo red on the motor performance in the mouse model of Huntington's disease (R62). Wild type mice or R62 transgenic mice carrying a polyglutamine repeat (R62Tg) were injected with either 0.5 ml of 1 mg/ml Congo red in phosphate buffered saline (PBS) or PBS alone and tested for their muscle strength by measuring their ability to remain on the rotorod at 10 rpm for a maximum period of 60 seconds.
Transgenic R62 mice that express the human Huntington's disease gene (carrying a 139-157 CAG repeat; Mangiarini et al., Cell 87:493-506, 1996; Carter et al., J. Neurosci. 19:3248-3257, 1999; and Levine et al., J. Neurosci. Res. 58:515-532, 1999) were used to examine the effects of Congo red on cell death or toxicity. […]
The latter procedure involved administration of 0.25 μl of the drug (1 mg/ml in 0.4% DMSO) per hour, for a period of at least 28 days. […] Polyglutamine inclusions were readily detected at the beginning of treatment. The effect of Congo red on the polyglutamine-induced toxicity in muscle strength in the animal model R62 was quantified by the use of a rotorod.
The mice were trained every day for a week after which time the latency to fall from a rotorod at a speed of 10 rpm was measured for each mouse, with a maximum time of 60 seconds per trial, as described by Carter et al., (J. Neurosci. 19:3248-3257, 1999). […]

[1] = test system: semi-purified Q79 oligomers from HeLa cells expressing transfected Q79-GFP; assay: Disassembly of semi-purified Q79 oligomers; type: biochemical; conditions: 25 μM (FIG. 6C); fluorescence microscopy
Experimental: FIG. 6C is a set of scanned images of the disruption of pre-formed Q79-GFP oligomers by Congo red, minocycline, or rolitetracycline. Lysates from Q79-GFP expressing cells were treated with 25 μM of the indicated compound, and visualized by fluorescence microscopy.
To determine if binding to polyglutamine is sufficient to inhibit the aggregate formation, we compared the ability of minocycline, rolitetracycline, iota carrageenan, dextran, chrysamine G, and Congo red to bind to 81-repeat polyglutamine polypeptide by the chemical absorption assay described above (FIG. 6B). […] To examine the relationship of compound binding and its ability to dissolve expanded polyglutamine aggregates, we tested their effects on semi-purified Q79 oligomers from HeLa cells expressing transfected Q79-GFP, viewed using a microscope.

HD transgenic mice (R62) = assay: Fasting glucose levels in blood; type: in vivo; conditions: 6 hours of fasting, intraperitoneal delivery
Source text: FIG. 10B is a table showing the effect of intraperitoneal delivery of Congo red or PBS (vehicle) on fasting glucose levels in wild-type (WT) or HD transgenic mice.
In addition, the ability of Congo red to inhibit the formation as well as to disrupt preformed polyglutamine oligomers allowed us to examine the role of polyglutamine aggregates in neuronal dysfunction and degeneration characteristic of polyglutamine expansion diseases. In these studies, we used the animal model of Huntington's disease (R62), which expresses the truncated form of huntingtin with 139 CAG repeats Mangiarini et al. (supra). We took advantage of our finding that in addition to inhibiting polyglutamine oligomerization, Congo red also disrupts pre-formed oligomers, thus allowing assessment of the impact of Congo red on disease progression after formation of polyglutamine aggregates and the onset of symptoms. R62 transgenic mice and CBAxC57B1/6 F1 wild type littermates were obtained from Jackson Laboratories (Bar Harbor, Me.) at the age of five weeks. […]
R62 mice also develop severe diabetes due to the presence of polyglutamine aggregates in the pancreas. […] The levels of glucose in the blood after 6 hours of fasting were measured from the serum using the Accu-Check strip kit (Roche, Co.).

[2] = test system: non-transfected HeLa cells; assay: Total cellular protein degradation; type: cell-based; conditions: Congo red 100 μM, ZVAD 100 μM, MG132 10 μM; H3-tyrosine release, 0 to 180 minutes
Experimental: FIG. 8C is a graph of the effect of effect of Congo red, ZVAD, or the proteosome inhibitor MG132 on total cellular protein degradation in non-transfected HeLa cells.
To rule out the possibility that Congo red may have an effect on protein degradation in general, we tested the effect of Congo red on proteosome degradation. Rates of total cellular protein degradation experiments, from cells seeded in 12 well dishes at 2×10^4, treated with Congo red (100 μM), ZVAD (100 μM), or the proteosome inhibitor MG132 (10 μM) and labeled with 5 μCi/ml of H^3-tyrosine for 1 hour. One hundred microliter culture medium aliquots were collected at 0, 30, 60, 90, 120, and 180 minute time points, and the levels of H^3-tyrosine were determined using an LS6000 scintillation counter (Beckman, Co).

Compound: Nc1c(/N=N/c2ccc(-c3ccc(/N=N/c4cc(S(=O)(=O)O)c5ccccc5c4N)cc3)cc2)cc(S(=O)(=O)O)c2ccccc12 [Congo red, diphenyldiazo-bis-alpha-napthylaminesulfonate]
- ability to remain on the rotorod (R62 transgenic mice): exhibited a better ability to remain on the rotorod
- disassembly of pre-formed poly-Q oligomers [1]: caused the disassembly of pre-formed poly-Q oligomers
- fasting glucose levels in blood (HD transgenic mice (R62)): reduced the fasting glucose levels in blood
- general protein degradation [2]: neither Congo red nor ZVAD had any effect
